Experimental findings from US5821231A, “CS-1 peptidomimetics, compositions and methods of using same” (Cytel Corporation, priority 1995, dated 1998) are described below.

The target of this experiment is VLA-4 (Homo sapiens, UniProt P05556+P13612). The experiment can be described thus: In vitro binding assay: 51Cr-labeled Jurkat cells to solid phase-bound CS-1 compound (SEQ ID NO:1). The format is cell-based. Also noted: inflammatory cells that contain the VLA-4 receptor [Jurkat cells; host or cells: Jurkat cells (human T lymphoblastic line). As to conditions: for Relative Potency (prodrug compound): before the prodrug compound is enzymatically converted to an active form, relative to SEQ ID NO:3 = 1. As to the method: Binding inhibition is measured here as a concentration of compound that inhibits one-half the binding between a standard number of Jurkat cells and a standard amount of CS-1 compound bound to the surface of a microtiter plate well. Those concentrations are conveniently expressed as IC50 values, smaller numbers indicating a lower concentration required to inhibit 50 percent binding and therefore greater potency. Further specifics of this assay are provided hereinafter.
Sequence of VLA-4 (P13612 34-1032): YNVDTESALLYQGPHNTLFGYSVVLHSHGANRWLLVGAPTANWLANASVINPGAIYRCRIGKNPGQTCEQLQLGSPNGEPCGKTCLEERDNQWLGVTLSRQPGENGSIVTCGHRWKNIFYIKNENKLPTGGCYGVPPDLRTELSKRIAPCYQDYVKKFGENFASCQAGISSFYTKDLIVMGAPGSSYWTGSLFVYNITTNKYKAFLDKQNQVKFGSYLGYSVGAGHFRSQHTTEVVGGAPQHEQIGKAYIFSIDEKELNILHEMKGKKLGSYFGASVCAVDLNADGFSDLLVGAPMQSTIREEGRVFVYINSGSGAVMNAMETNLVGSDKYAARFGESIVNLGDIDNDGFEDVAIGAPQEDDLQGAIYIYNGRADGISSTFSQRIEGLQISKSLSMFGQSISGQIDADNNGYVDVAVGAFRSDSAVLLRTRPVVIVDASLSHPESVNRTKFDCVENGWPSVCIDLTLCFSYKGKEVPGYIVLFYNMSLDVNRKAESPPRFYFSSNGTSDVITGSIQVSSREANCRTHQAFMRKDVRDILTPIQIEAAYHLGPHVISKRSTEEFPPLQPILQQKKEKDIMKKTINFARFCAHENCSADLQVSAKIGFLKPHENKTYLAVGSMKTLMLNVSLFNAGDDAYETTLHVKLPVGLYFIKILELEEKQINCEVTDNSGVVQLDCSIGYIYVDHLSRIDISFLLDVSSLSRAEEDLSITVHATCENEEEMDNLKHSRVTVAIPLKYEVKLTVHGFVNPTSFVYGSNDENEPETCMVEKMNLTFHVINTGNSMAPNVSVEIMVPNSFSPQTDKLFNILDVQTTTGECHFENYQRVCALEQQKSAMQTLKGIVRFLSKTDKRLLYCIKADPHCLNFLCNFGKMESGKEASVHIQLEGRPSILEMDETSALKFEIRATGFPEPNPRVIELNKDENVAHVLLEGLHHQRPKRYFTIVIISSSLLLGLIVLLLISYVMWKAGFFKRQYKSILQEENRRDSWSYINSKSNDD
Sequence of VLA-4 (P05556 21-798): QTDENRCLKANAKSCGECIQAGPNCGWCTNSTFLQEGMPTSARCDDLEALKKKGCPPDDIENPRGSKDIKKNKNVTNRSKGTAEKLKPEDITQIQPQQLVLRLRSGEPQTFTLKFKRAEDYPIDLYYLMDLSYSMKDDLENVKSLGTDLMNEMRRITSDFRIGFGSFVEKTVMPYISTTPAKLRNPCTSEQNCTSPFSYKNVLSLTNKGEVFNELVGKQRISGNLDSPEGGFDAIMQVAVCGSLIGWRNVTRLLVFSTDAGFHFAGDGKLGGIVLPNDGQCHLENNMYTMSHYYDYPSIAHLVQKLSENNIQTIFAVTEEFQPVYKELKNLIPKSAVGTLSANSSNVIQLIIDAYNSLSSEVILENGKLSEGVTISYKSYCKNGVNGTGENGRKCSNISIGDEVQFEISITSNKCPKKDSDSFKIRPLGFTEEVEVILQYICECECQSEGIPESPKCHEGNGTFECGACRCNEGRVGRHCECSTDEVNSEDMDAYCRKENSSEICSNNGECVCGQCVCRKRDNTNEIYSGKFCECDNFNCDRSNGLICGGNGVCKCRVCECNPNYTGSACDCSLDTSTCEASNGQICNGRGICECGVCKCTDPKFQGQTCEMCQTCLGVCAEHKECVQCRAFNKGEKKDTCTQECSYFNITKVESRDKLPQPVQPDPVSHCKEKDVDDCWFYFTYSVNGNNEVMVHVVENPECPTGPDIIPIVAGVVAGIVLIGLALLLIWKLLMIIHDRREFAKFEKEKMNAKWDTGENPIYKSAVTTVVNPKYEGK
Jurkat cells (ATCC TIB 152), a human T lymphoblastic line, labeled with ^51 chromium were used to assay in vitro binding inhibition provided by various compounds discussed herein.
The plates were prepared as follows: The 25-mer CS-1 compound (SEQ ID NO:1) dissolved at 0.5-1 μg/ml in a buffer of 0.1M NaHCO3 at pH 9.5 that also contained 10 μg/ml of bovine serum albumin (BSA) or a conjugate of the CS-1 compound linked to ovalbumin (CS-1-OVA) dissolved at 1-2.5 μg/ml in the same buffer was used as the substrate. Each well of the microtiter plates was coated with 50 μl of substrate or buffer alone for controls. The wells were permitted to dry out completely and were then rinsed twice with PBS at pH 7.4. Non-specific binding sites of each well were then blocked using 200 μl per well of RPMI/1 percent BSA for two hours at room temperature.
Jurkat cells (3-5×10^6 cells) were placed into a 15 ml Falcon™ round-bottom tube with a cap. The tube was centrifuged, and the extra medium was then removed.
Two hundred microliters of a ^51 Cr labeling solution were added to the centrifuged cells and maintained in contact with the cells for 90-120 minutes in a warm room. […] Longer contact times provide a greater amount of labeling but lower cell viability.
The labeled cells are washed with (i) complete medium, (ii) 1 mM EDTA/PBS and then (iii) RPM1/1 percent BSA free of serum components. The cells are centrifuged after each washing. The cells are finally resuspended in serum-free RPMI/1 percent BSA at a concentration of 1×10^6 viable cells/ml, which provides a concentration that is diluted by one-half in the assay.
Inhibitor compounds are prepared as stock solutions at 20 mg/ml in DMSO in 1.5 ml cryogenic screwcap vials, and were stored at -70° C. Using Flow™ round-bottom or V-bottom microtiter plates, the inhibitor compounds were prepared at twice the assay concentration in RPMI/1 percent BSA at 60 μl/well.
Four initial dilutions were typically used.
The ^51 Cr-labeled cells ([…] at 60 μl/well) were then admixed with the diluted compound solutions. The admixtures were maintained at room temperature (about 22° C.) for 30 minutes.
One hundred microliters of each inhibitor compound/cell admixture were transferred to the substrate-coated wells. This was done in triplicate for each dilution. The resulting plates were incubated for 30 minutes at 37° C. and then washed gently three times with RPMI/1 percent BSA at 200 μl/well. Binding was observed microscopically, particularly after the second wash.
The bound cells were then lysed by the addition of a 0.5 percent solution of sodium dodecylsulfate in water at 100 μl/well. The resulting solutions were then processed for counting and calculation of IC50 values following usual procedures.
The data of Table 1 are normalized to the binding of SEQ ID NO: 3. […] Multiple assays for the same compound were averaged.

Where [1] appears, read: binding inhibition potency (IC50) relative to standard compound of SEQ ID NO:3 = 1, about one-tenth or less assigned zero.

Where two headings read alike, the source gives them in different places. Square brackets hold non-standard residues; d marks the D form. Peptide text beside a SMILES is read from it. * marks the point of attachment. NHOctadecyl = CCCCCCCCCCCCCCCCCCN*; Cya = N[C@@H](CS(=O)(=O)O)C(=O)O; hPhe = N[C@@H](CCc1ccccc1)C(=O)O; Cha = N[C@@H](CC1CCCCC1)C(=O)O; Phg = N[C@H](C(=O)O)c1ccccc1; X8 = CCCCCCCCCCCCCCCCCCO*; Piperidide = C1CCN(*)CC1; X7 = O=C(CO*)OCc1ccccc1; PhAc = O=C(Cc1ccccc1)*; ODecyl = CCCCCCCCCCO*; X1 = CCCCCCCCCCCCCCO*; X4 = CCN(CC)C(=O)CO*; Bz = O=C(c1ccccc1)*; OBn = c1ccc(CO*)cc1; X5 = CCCCCCCCCCCCO*; Ahx = NCCCCCC(=O)O; X6 = O=C(O)CO*

For the compound `NC(=O)[C@H]1CCCN1C(=O)[C@H](Cc1ccccc1)NC(=O)[C@H](CC(=O)O)NC(=O)[C@H](CC1CCCCC1)NC(=O)c1ccccc1` [896.31] (Bz-[Cha]DF[dP]-NH2), under setting [1], the “Relative Potency” value turned out to be 11.

On to `CC(C)C[C@H](NC(=O)c1ccccc1)C(=O)N[C@@H](CC(=O)O)C(=O)N[C@H](C(=O)N1CCC[C@H]1C(N)=O)C(C)C` [896.35], for which the “Relative Potency” value under setting [1] is 16.

As to `CC(C)C[C@H](NC(=O)Cc1ccccc1)C(=O)N[C@@H](CS)C(=O)N[C@@H](Cc1ccccc1)C(=O)N1CCC[C@@H]1C(N)=O` [896.59] (PhAc-LCF[dP]-NH2), the “Relative Potency” value under setting [1] amounted to 0.

In the case of `CC(C)C[C@H](NC(=O)Cc1ccccc1)C(=O)N[C@@H](CC(=O)O)C(=O)N[C@H](C(=O)N1CCC[C@@H]1C(N)=O)c1ccccc1` [896.69] (PhAc-LD[Phg][dP]-NH2), the “Relative Potency” value under setting [1] came to 61.

For `CC(C)C[C@H](NC(=O)c1ccccc1)C(=O)N[C@@H](CC(=O)O)C(=O)N[C@H](C(=O)N1CCC[C@@H]1C(N)=O)C(C)C` [926.02], under setting [1], the “Relative Potency” value is reported as 9.6.

As for `O=C(O)C[C@H](NC1CCN(C(=O)Cc2ccccc2)CC1)C(=O)N[C@@H](Cc1ccccc1)C(=O)N1CCCC1` [992.01], the “Relative Potency” value under setting [1] came out at 0.

Take `CC(C)C[C@H](NC(=O)Cc1ccccc1)C(=O)N[C@@H](CC(=O)O)C(=O)N[C@@H](Cc1ccccc1)C(N)=O` [997.12] (PhAc-Leu-Asp-Phe-NH2): under setting [1], the “Relative Potency” value is recorded as “.45”.

On to `CC(C)C[C@H](NC(=O)Cc1ccccc1)C(=O)N[C@@H](CC(=O)O)C(=O)NC1Cc2ccccc2N(CCN2CCOCC2)C1=O` (stereo partly drawn) [997.18], for which the “Relative Potency” value under setting [1] is given as 20.

Take `CC(C)C[C@H](NC(=O)Cc1ccccc1)C(=O)NC(CC(=O)O)(CC(=O)O)C(=O)N[C@@H](Cc1ccccc1)C(=O)N1CCCCC1` [1026.01]: the “Relative Potency” value under setting [1] is given as 0.

Take `CC(C)C[C@H](NC(=O)Cc1ccccc1)C(=O)NC(C(=O)O)C(=O)N[C@@H](Cc1ccccc1)C(=O)N1CCCCC1` (stereo partly drawn) [1026.02]: under setting [1], the “Relative Potency” value worked out at 0.

On to `CC(C)C[C@H](NC(=O)Cc1ccccc1)C(=O)N[C@@H](CS(=O)(=O)O)C(=O)N[C@@H](Cc1ccccc1)C(=O)N1CCCCC1` [1026.06] (PhAc-Leu-[Cya]-Phe-Piperidide), for which the “Relative Potency” value under setting [1] is 0.

With `CC(C)C[C@H](NC(=O)Cc1ccccc1)C(=O)N[C@@H](CP(=O)(O)O)C(=O)N[C@@H](Cc1ccccc1)C(=O)N1CCCCC1` [1026.07], the “Relative Potency” value under setting [1] is listed as 0.

For `CC(C)C[C@H](NC(=O)Cc1ccccc1)C(=O)N[C@@H](CS(N)(=O)=O)C(=O)N[C@@H](Cc1ccccc1)C(=O)N1CCCCC1` [1026.08], the “Relative Potency” value under setting [1] is 0.

Turning to `CC(C)CN(CC(=O)Nc1ccccc1)C(=O)CN(CC(=O)O)C(=O)CN(Cc1ccccc1)C(=O)C1CCCC1` [1032.02], under setting [1], the “Relative Potency” value is recorded as “.63”.

Regarding `CC(C)C[C@@H](CN[C@@H](CC(=O)O)C(=O)N[C@@H](Cc1ccccc1)C(=O)N1CCCCC1)NC(=O)Cc1ccccc1` [1041.01], the “Relative Potency” value under setting [1] worked out at 0.

For the compound `CC(C)C[C@H](NC(=O)Cc1ccccc1)C(=O)N[C@@H](CC(=O)O)C(=O)N1C(=O)N(Cc2ccccc2)C(=O)[C@H]1Cc1ccccc1` [1047.07], the “Relative Potency” value under setting [1] was “.38”.

Regarding `CC(C)C[C@H](NC(=O)Cc1ccccc1)C(=O)N[C@@H](CC(=O)O)C(=O)N1C(=O)N(Cc2ccccc2)C(=O)[C@@H]1Cc1ccccc1` [1047.08], the “Relative Potency” value under setting [1] is “.38”.

Consider `CC(C)C[C@H](NC(=O)Cc1ccccc1)C(=O)N[C@@H](CC(=O)O)C(=O)N[C@@H](Cc1ccccc1)C(=O)NCCCO` [1051.05], for which the “Relative Potency” value under setting [1] was found to be 25.

As to `CC(C)[C@@H]1CC[C@@H](C)C[C@H]1OCC(=O)N[C@@H](CC(=O)O)C(=O)N[C@@H](Cc1ccccc1)C(=O)N1CCC[C@@H]1C(N)=O` [1056.06], the “Relative Potency” value worked out at 0.

Regarding `NC(=O)[C@H]1CCCN1C(=O)[C@H](Cc1ccccc1)NC(=O)[C@H](CC(=O)O)NC(=O)CCCCC1CCSS1` (stereo partly drawn) [1056.09], the “Relative Potency” value under setting [1] is on record as 1.1.

Consider `O=C(O)CC(C(=O)N[C@@H](Cc1ccccc1)C(=O)N1CCCCC1)N1CC[C@H](NC(=O)Cc2ccccc2)C1=O` (stereo partly drawn) [1057.01], for which the “Relative Potency” value under setting [1] is “.88”.

For `CC(C)C[C@H](NC(=O)Cc1ccccc1)C(=O)N[C@@H](CC(=O)O)C(=O)NC1CCCCN(CC(N)=O)C1=O` (stereo partly drawn) [1057.06], the “Relative Potency” value under setting [1] came out at 97.

With `CC(C)C[C@H](NC(=O)Cc1ccccc1)C(=O)N[C@@H](CC(=O)O)C(=O)N[C@@H](CCc1ccccc1)C(=O)N1CCC[C@@H]1C(N)=O` [1062.03] (PhAc-LD[hPhe][dP]-NH2), under setting [1], the “Relative Potency” value turned out to be 93.93.

As for `CC(C)C[C@H](NC(=O)Cc1ccccc1)C(=O)N[C@@H](CC(=O)OCC(=O)OCc1ccccc1)C(=O)N[C@@H](Cc1ccccc1)C(=O)N1CCC[C@@H]1C(N)=O` [1067.01] (PhAc-LD(X7)F[dP]-NH2), the “Relative Potency (prodrug compound)” value was “.97”.

`CC(C)C[C@H](NC(=O)Cc1ccccc1)C(=O)N[C@@H](CC(=O)OCC(=O)O)C(=O)N[C@@H](Cc1ccccc1)C(=O)N1CCC[C@@H]1C(N)=O` [1067.02] (PhAc-LD(X6)F[dP]-NH2): the “Relative Potency (prodrug compound)” value was “.81”.

In the case of `CCCCCCCCCCCCCCCCCCNC(=O)CCCCCNC(=O)[C@@H]1CCCN1C(=O)[C@H](Cc1ccccc1)NC(=O)[C@H](CC(=O)O)NC(=O)[C@H](CC(C)C)NC(=O)Cc1ccccc1` [1068.01, phenylacetyl-Leu-Asp-Phe-Pro-NH(CH2)5 C (O)NHC18 H37] (PhAc-LDFP[Ahx]-NHOctadecyl), the “Relative Potency (prodrug compound)” value was “.91”.

Turning to `CCCCCCCCCCCCCCCCCC(=O)OC1CCN(C(=O)[C@H](Cc2ccccc2)NC(=O)[C@H](CC(=O)O)NC(=O)[C@H](CC(C)C)NC(=O)Cc2ccccc2)CC1` [1068.05], the “Relative Potency (prodrug compound)” value is reported as 0.63.

With `CCCCCCCCCC(=O)OC1CCN(C(=O)[C@H](Cc2ccccc2)NC(=O)[C@H](CC(=O)O)NC(=O)[C@H](CC(C)C)NC(=O)Cc2ccccc2)CC1` [1068.06], the “Relative Potency (prodrug compound)” value is “.63”.

As for `CC(C)C[C@H](NC(=O)Cc1ccccc1)C(=O)N[C@@H](CC(=O)OCc1ccccc1)C(=O)N[C@@H](Cc1ccccc1)C(=O)N1CCC[C@@H]1C(N)=O` [1068.07] (PhAc-LD(OBn)F[dP]-NH2), the “Relative Potency (prodrug compound)” value was 0.

Take `CCCCCCCCCCOC(=O)C[C@H](NC(=O)[C@H](CC(C)C)NC(=O)Cc1ccccc1)C(=O)N[C@@H](Cc1ccccc1)C(=O)N1CCC[C@@H]1C(N)=O` [1068.09] (PhAc-LD(ODecyl)F[dP]-NH2): the “Relative Potency (prodrug compound)” value is recorded as 0.

With `CCCCCCCCCCCCOC(=O)C[C@H](NC(=O)[C@H](CC(C)C)NC(=O)Cc1ccccc1)C(=O)N[C@@H](Cc1ccccc1)C(=O)N1CCC[C@@H]1C(N)=O` [1068.10] (PhAc-LD(X5)F[dP]-NH2), the “Relative Potency (prodrug compound)” value came to 0.

Turning to `CCCCCCCCCCCCCCOC(=O)C[C@H](NC(=O)[C@H](CC(C)C)NC(=O)Cc1ccccc1)C(=O)N[C@@H](Cc1ccccc1)C(=O)N1CCC[C@@H]1C(N)=O` [1068.11] (PhAc-LD(X1)F[dP]-NH2), the “Relative Potency (prodrug compound)” value is 0.

Turning to `CCCCCCCCCCCCCCCCCCOC(=O)C[C@H](NC(=O)[C@H](CC(C)C)NC(=O)Cc1ccccc1)C(=O)N[C@@H](Cc1ccccc1)C(=O)N1CCC[C@@H]1C(N)=O` [1068.12] (PhAc-LD(X8)F[dP]-NH2), the “Relative Potency (prodrug compound)” value was 0.

`CCN(CC)C(=O)COC(=O)C[C@H](NC(=O)[C@H](CC(C)C)NC(=O)Cc1ccccc1)C(=O)N[C@@H](Cc1ccccc1)C(=O)N1CCC[C@@H]1C(N)=O` [1068.13] (PhAc-LD(X4)F[dP]-NH2): the “Relative Potency (prodrug compound)” value came out at 0.

With `CC(C)C[C@H](NC(=O)Cc1ccccc1)C(=O)N[C@@H](CC(=O)O)C(=O)N[C@@H](Cc1ccccc1)C(=O)N1CCSCC1` [1111.02], under setting [1], the “Relative Potency” value was 450.

For `CC(C)C[C@H](NC(=O)Cc1ccccc1)C(=O)N[C@@H](CC(=O)O)C(=O)N[C@@H](Cc1ccccc1)C(=O)N1CCN(CCOCCO)CC1` [1111.07], the “Relative Potency” value under setting [1] worked out at 510.
